Experiments:
[1] = Estimated radiation dose in humans; design: species or system human; Gamma dose/100 mCi / Alpha dose/100 mCi / Total dose: unit: cGy; conditions: for Total dose / Calculated alpha dose / Calculated gamma dose: 100 mCi
Source text: Based upon the in vivo studies, a contemplated dose of 100 mCi to a human produces an alpha and gamma dose to any organ of less than 150 cGy. The calculated alpha dose to the gastrointestinal tract, liver and kidneys is 87.7, 24.6 and 92.5 cGy, respectively, and the calculated gamma dose is 7.39, 4.14 and 5.00 cGy, respectively. Table 9, below, provides the estimated total dose in humans based upon an initial dose of 100 mCi of Bi-212.

[2] = Retention of chelated and non-chelated Bi-212 in peritoneal fluid; type: in vivo, rabbit; conditions: rabbits, 3 hours after instillation
Method: Groups of rabbits were instilled with a varying amounts (correlating to varying activities) of Bi-212 that were prepared in accordance with the before-described process, neutralized to pH values of between 5.0 and 7.4, and had added thereto a quantity of normal saline to make a 200 cc sample. To compare the distribution of Bi-212, Pb-212 ferrous hydroxide was prepared in accordance with known methods. Rotmensch et al., Gynecol. Oncol., 35:297-300 (1989). Groups of rabbits were also instilled with the Pb-212 ferrous hydroxide preparation.
Of the groups of rabbits instilled with the Bi-212 solution, a rabbit was imaged and necropsied at each of one-half hour, one hour and three hours after instillation. The percent injected activity (%IA) in each organ was measured to determine the distribution of the Bi-212(Table 6). To determine whether chelating to DTPA improved the retention of Bi-212 in the peritoneal fluid, a group of rabbits was instilled with Bi-212 DTPA, and was imaged and necropsied at three hours following instillation. The percent activity remaining in the peritoneal fluid was measured.

[3] = test system: NIH:OVCAR-3 cells (spheroids); test: In vitro irradiation survival, spheroids; type: cell-based, human; conditions: OVCAR-3 spheroids
Method: In vitro studies were carried out using three well known cell lines, the cells from which were exposed to radiation from: (1) an X-ray source; (2) P-32 chromic phosphate; and (3) Bi-212 chloride. The three cell lines that were used are V-79, which is a Chinese hamster lung fibroblast, Ehrlich-Lettre Ascites carcinoma (ATCC CCL 77), which is an ascites producing -tumor, and NIH:OVCAR-3 (ATCC HTB 161), which is a human ovarian adenocarcinoma. These well known cell lines are predictive of what happens in vivo. The cells were grown as monolayers and into spheroid formations and subsequently irradiated, as described herein.
The V-79 cells were maintained under exponential growth conditions in minimal essential medium (MEM) supplemented with 10 percent fetal bovine serum. The Ehrlich-Lettre Ascites carcinoma cells were maintained in 90 percent NCTC 109 supplemented with 10 percent fetal bovine serum. The NIH:OVCAR-3 cells were maintained in RPMI 1640 and 10 percent fetal bovine serum.
To initiate the formation of the spheroids, cells at a concentration of about 500,000 cells per flask were seeded onto petri dishes base-cooked with 1 percent agar MEM without serum. After spheroids having a size of about 20 micrometers (μm) formed, the spheroids were transferred to spinner bottles and maintained for two to three weeks at a temperature of 37° C. in a CO2 incubator until they grew to 10 to 1000 μm. Prior to irradiation, the spheroids were sized and separated using a spheroid separation column.
Cells from each of the cell lines were irradiated by subjecting the cells to X-ray radiation, P-32, and Bi-212. The X-ray source that was used is a General Electric 250 kvp Maxitron, 26 […] (mA) (HVL 1.5 mm Cu) operated at a dose rate of 1.11 Greys per minute (Gy/min). The cells, in both monolayer and spheroid form were exposed at room temperature and then immediately plated for survival.
Cells in both monolayer and spheroid were exposed to P-32 chromic phosphate. The radiation dose to each sample was calculated as: […]
After exposure, the cells were washed in phosphate-buffered saline (PBS) and immediately plated for survival.
The cell lines were also irradiated using Bi-212. […] The filter was purged with 1 ml of distilled deionized water, and the radioactivity was assayed using a calibrated 3×3-in. […]
Cells were exposed over a period of four hours. The dose (D) per microCurie was calculated and corrected for decay as follows: [formula] where V=volume in milliliters, and […]
Following plating, survival measurements were taken for each of the irradiated cell samples. […] The plates were then stained with crystal violet and colonies greater than 50 cells were scored. The surviving fraction was then determined.
Intrinsic radiosensitivity (Do) was calculated from the survival curves. […]

[212Bi] [Bi-212, bismuth-212]
Alpha dose/100 mCi ([1]; GI tract): 87.7
Gamma dose/100 mCi ([1]; GI tract): 7.39
Total dose ([1]; GI tract): 95.1
Alpha dose/100 mCi ([1]; brain): 2.45
Gamma dose/100 mCi ([1]; brain): 0.038
Total dose ([1]; brain): 2.49
Alpha dose/100 mCi ([1]; breasts): 2.45
Gamma dose/100 mCi ([1]; breasts): 0.643
Total dose ([1]; breasts): 3.09
Alpha and gamma dose to any organ ([1]; contemplated dose of 100 mCi to a human): less than 150 cGy
Calculated alpha dose ([1]; gastrointestinal tract): 87.7 cGy
Calculated gamma dose ([1]; gastrointestinal tract): 7.39 cGy
Alpha dose/100 mCi ([1]; kidneys): 92.5
Gamma dose/100 mCi ([1]; kidneys): 5.00
Calculated alpha dose ([1]; kidneys): 92.5 cGy
Calculated gamma dose ([1]; kidneys): 5.00 cGy
Total dose ([1]; kidneys): 97.5
Alpha dose/100 mCi ([1]; liver): 24.6
Gamma dose/100 mCi ([1]; liver): 4.14
Calculated alpha dose ([1]; liver): 24.6 cGy
Calculated gamma dose ([1]; liver): 4.14 cGy
Total dose ([1]; liver): 28.7
Alpha dose/100 mCi ([1]; lungs): 2.45
Gamma dose/100 mCi ([1]; lungs): 1.33
Total dose ([1]; lungs): 3.78
Alpha dose/100 mCi ([1]; ovaries): 102.4
Gamma dose/100 mCi ([1]; ovaries): 5.42
Total dose ([1]; ovaries): 107.8
Alpha dose/100 mCi ([1]; pancreas): 2.45
Gamma dose/100 mCi ([1]; pancreas): 17.2
Total dose ([1]; pancreas): 19.7
Alpha dose/100 mCi ([1]; red marrow): 2.45
Gamma dose/100 mCi ([1]; red marrow): 2.30
Total dose ([1]; red marrow): 4.75
Alpha dose/100 mCi ([1]; remainder): 2.45
Gamma dose/100 mCi ([1]; remainder): 1.78
Total dose ([1]; remainder): 4.23
Alpha dose/100 mCi ([1]; thyroid): 2.45
Gamma dose/100 mCi ([1]; thyroid): 0.154
Total dose ([1]; thyroid): 2.60
Alpha dose/100 mCi ([1]; total body): 2.45
Gamma dose/100 mCi ([1]; total body): 1.83
Total dose ([1]; total body): 4.28
Alpha dose/100 mCi ([1]; uterus): 102.4
Gamma dose/100 mCi ([1]; uterus): 21.2
Total dose ([1]; uterus): 123.6
% activity in blood volume [2]: 4.5%
% activity in peritoneal fluid [2]: 80%
% activity in urine [2]: 6.0%
D0 (intrinsic radiosensitivity) ([3]; dose to 37 percent survival): 0.55 Gy
Relative biological effectiveness (RBE) ([3]; relative to X-ray): 2.81

Reference: patent publication US6126909A, “Process and apparatus for the production of BI-212 and a use thereof” (Arch Development Corporation, priority 1999, dated 2000)
